We go through one compound from patent publication US5250570A, “Amidobenzene derivatives, compositions and use” (Imperial Chemical Industries PLC, priority 1990, dated 1993).

The subject of experiment [1] is aldose reductase. In words: Reduction of sciatic nerve sorbitol levels in streptozotocin-diabetic rats (inhibition of aldose reductase in vivo). Also on record: species or system rat. To be noted: 5 daily oral doses of 3 mg/kg. As for the experimental part: Rats are made diabetic (as evidenced by severe glucosuria being present) by dosing with streptozotocin. The animals are then dosed daily with the test compound for one, two or five days. The animals are then sacrificed 2-6 hours after the final dose and the eye lenses and/or sciatic nerves are removed. After a standard work-up procedure the residual sorbitol levels in each tissue are determined by gas liquid chromatography after conversion to the polytrimethylsilyl derivatives. Inhibition of aldose reductase in vivo can then be assessed by comparing the residual sorbitol levels in tissues from the dosed diabetic group of rats with those of an undosed group of diabetic rats and an undosed group of normal rats.
In a variation of the above test diabetic rats are dosed at a fixed daily oral dose for five days and then sacrificed 6 hours after the final dose and the reduction of sciatic nerve sorbitol assessed relative to that in control animals.

Experiment [2] has as its target T1, aldose reductase (Bos taurus, UniProt P16116).
T1 construct: partially purified aldose reductase is isolated in known manner from bovine lenses; from tissue; host or cells: bovine lens
In words: In vitro inhibition of partially purified bovine lens aldose reductase (spectrophotometric). To be noted: partially purified aldose reductase from bovine lenses. The experiment is classed as biochemical. From the text: Thus, in a standard procedure partially purified aldose reductase is isolated in known manner from bovine lenses. The percentage inhibition of this enzyme's ability in vitro to catalyse the reduction of aldoses to polyhydric alcohols, and particularly to reduce glucose to sorbitol, caused by a test compound can then be determined using standard spectrophotometric methods.

As to `Cc1cc(NC(=O)COc2ccccc2)cc(C)c1S(=O)(=O)C[N+](=O)[O-]` [Example 1, (2,6-dimethyl-4-[2-phenoxyacetamido]phenylsulfonyl)nitromethane], the “reduction in sciatic nerve sorbitol levels” value in experiment [1] is listed as 78%. In experiment [2], this compound yielded an IC50 of 0.044 µM.
